The values below come from ChEMBL document CHEMBL2074384, “Reduced folate derivatives are endogenous substrates for cMOAT in rats” (Am J Physiol, 1998).

The target of data set [1] is T1, ATP-binding cassette sub-family C member 2 (Rattus norvegicus, UniProt Q63120). Nature of the data set: TP_TRANSPORTER: inhibition of 5-methyltetrahydrofolate uptake in bile canalicular membrane vesicles from SD rat. The format is functional, cell membranes, Sprague-Dawley, Bile canalicular membrane vesicle.
In data set [2] the target is T1, ATP-binding cassette sub-family C member 2. Nature of the data set: TP_TRANSPORTER: inhibition of DNP-SG uptake in bile canalicular membrane vesicles from SD rat. In kind it is functional, cell membranes, Sprague-Dawley, Bile canalicular membrane vesicle.
Substrate in data set [3]: CN1c2c(nc(N)[nH]c2=O)NC[C@@H]1CNc1ccc(C(=O)N[C@@H](CCC(=O)O)C(=O)O)cc1
The data set is described as follows: cells, lysate or membranes named.

Consider `N[C@@H](CCC(=O)N[C@H](CSc1ccc([N+](=O)[O-])cc1[N+](=O)[O-])C(=O)NCC(=O)O)C(=O)O`, for which the affinity in data set [1] corresponds to a Ki of 34.5 µM.
Turning to `Nc1nc2c(c(=O)[nH]1)N1CN(c3ccc(C(=O)N[C@@H](CCC(=O)O)C(=O)O)cc3)CC1CN2` (stereo not given in full) [FOLITIXORIN], the Ki (usually a measure of affinity in units of concentration, obtained from inhibition or displacement) in data set [2] came to 269 µM.
On the same count and under the same terms, to `CN1c2c(nc(N)[nH]c2=O)NC[C@@H]1CNc1ccc(C(=O)N[C@@H](CCC(=O)O)C(=O)O)cc1` [LEVOMEFOLIC ACID] belongs 121 µM; to `Nc1nc2c(c(=O)[nH]1)NC(CNc1ccc(C(=O)N[C@@H](CCC(=O)O)C(=O)O)cc1)CN2` (stereo not given in full) [TETRAHYDROFOLATE], 358 µM.

B1: ATP-binding cassette sub-family C member 2 (Rattus norvegicus) (protein)
chain: MDKFCNSTFWDLSLLESPEADLPLCFEQTVLVWIPLGFLWLLAPWQLYSVYRSRTKRSSITKFYLAKQVFVVFLLILAAIDLSLALTEDTGQATVPPVRYTNPILYLCTWLLVLAVQHSRQWCVRKNSWFLSLFWILSVLCGVFQFQTLIRALLKDSKSNMAYSYLFFVSYGFQIVLLILTAFSGPSDSTQTPSVTASFLSSITFSWYDRTVLKGYKHPLTLEDVWDIDEGFKTRSVTSKFEAAMTKDLQKARQAFQRRLQKSQRKPEATLHGLNKKQSQSQDVLVLEEAKKKSEKTTKDYPKSWLIKSLFKTFHVVILKSFILKLIHDLLVFLNPQLLKLLIGFVKSSNSYVWFGYICAILMFAVTLIQSFCLQSYFQHCFVLGMCVRTTVMSSIYKKALTLSNLARKQYTIGETVNLMSVDSQKLMDATNYMQLVWSSVIQITLSIFFLWRELGPSILAGVGVMVLLIPVNGVLATKIRNIQVQNMKNKDKRLKIMNEILSGIKILKYFAWEPSFQEQVQGIRKKELKNLLRFGQLQSLLIFILQITPILVSVVTFSVYVLVDSANVLNAEKAFTSITLFNILRFPLSMLPMVTSSILQASVSVDRLERYLGGDDLDTSAIRRVSNFDKAVKFSEASFTWDPDLEATIQDVNLDIKPGQLVAVVGTVGSGKSSLVSAMLGEMENVHGHITIQGSTAYVPQQSWIQNGTIKDNILFGSEYNEKKYQQVLKACALLPDLEILPGGDMAEIGEKGINLSGGQKQRVSLARAAYQDADIYILDDPLSAVDAHVGKHIFNKVVGPNGLLAGKTRIFVTHGIHFLPQVDEIVVLGKGTILEKGSYRDLLDKKGVFARNWKTFMKHSGPEGEATVNNDSEAEDDDDGLIPTMEEIPEDAASLAMRRENSLRRTLSRSSRSSSRRGKSLKNSLKIKNVNVLKEKEKEVEGQKLIKKEFVETGKVKFSIYLKYLQAVGWWSILFIILFYGLNNVAFIGSNLWLSAWTSDSDNLNGTNNSSSHRDMRIGVFGALGLAQGICLLISTLWSIYACRNASKALHGQLLTNILRAPMRFFDTTPTGRIVNRFSGDISTVDDLLPQTLRSWMMCFFGIAGTLVMICMATPVFAIIIIPLSILYISVQVFYVATSRQLRRLDSVTKSPIYSHFSETVTGLPIIRAFEHQQRFLAWNEKQIDINQKCVFSWITSNRWLAIRLELVGNLVVFCSALLLVIYRKTLTGDVVGFVLSNALNITQTLNWLVRMTSEAETNIVAVERISEYINVENEAPWVTDKRPPADWPRHGEIQFNNYQVRYRPELDLVLKGITCNIKSGEKVGVVGRTGAGKSSLTNCLFRILESAGGQIIIDGIDVASIGLHDLRERLTIIPQDPILFSGSLRMNLDPFNKYSDEEVWRALELAHLRSFVSGLQLGLLSEVTEGGDNLSIGQRQLLCLGRAVLRKSKILVLDEATAAVDLETDSLIQTTIRKEFSQCTVITIAHRLHTIMDSDKIMVLDNGKIVEYGSPEELLSNRGSFYLMAKEAGIENVNHTEL
B1: in data set [3], the Michaelis-Menten constant (Km) (usually the substrate concentration at which the rate is half of its maximum) turned out to be 126 µM.
